Measurements as given in patent US12122787B2, “Fused pyridone compound, and preparation method therefor and use thereof” (SHANGHAI JEMINCARE PHARMACEUTICALS CO., LTD, priority 2019, dated 2024).
Like-named read-outs stand apart in the source and are kept apart here.

Tests used:
Assay type in all cases: cell-based
[1] = tested on: phosphorylated ERK (Thr202/Tyr204) in NCI-H358 cells expressing mutant RAS(G12C); assay: Inhibition of RAS-mediated signal transduction: phosphorylated ERK ELISA in NCI-H358 cells
Experimental: The cells were treated with or without the compound of the present disclosure (dimethyl sulfoxide, DMSO), and the final concentration of DMSO was guaranteed to be 0.5%. After 2 hours of treatment, the medium was removed and 4% paraformaldehyde (Beyotime catalog number E672002-0100) was added and left to stand for 20 minutes. Cells were washed with PBS after fixation and incubated with precooled methanol for 10 min to permeabilize the cell membrane.
The level of phosphorylated ERK was detected using an enzyme linked immunosorbent assay (ELISA) method. […] The plates were washed 5 times with PBS containing 0.05% Tween 20. […] The reaction was stopped by adding 1 mol/L H2SO4, and the OD value was read at 450 nm by EnVision (PerkinElmer).
The total number of cells per well was detected by Janus Green B staining method. After detecting the level of phosphorylated ERK, the 96-well plate was washed with PBS until colorless, and 0.1% Janus Green B (Abcam catalogue number ab111622) was added to incubate for 10 minutes. After the 96-well plate was washed with double distilled water, 0.1 mol/L HCl was added, then the mixture was shaked and incubated for 10 minutes. The OD value was read at 595 nm by EnVision (PerkinElmer).
The signal of pERK (Thr202/Tyr204) was normalized by the signal value of Janus Green B, and the inhibition percentage after drug treatment relative to DMSO reference was calculated. The percentage values were fitted by a four-parameter dose-response curve and generated IC50 values.

[2] = tested on: NCI-H358 cells expressing KRAS-G12C; assay: Growth inhibition of tumor cell line expressing KRAS-G12C (Cell Titer Glo), NCI-H358
Experimental: (§1) The ability of the compounds of the present disclosure to inhibit the growth of cells expressing KRAS-G12C was evaluated by measuring the cell viability and calculating the GI50 values.
(§2) The tumor cell line NCI-H358 (ATCC catalogue number CRL-5807) expressing KRAS-G12C was cultured in RPMI medium supplemented with 10% fetal bovine serum and penicillin/streptomycin, and the tumor cell line MIA PaCa2 (ATCC CRL-1420) expressing KRAS-G12C was cultured in DMEM medium supplemented with 10% fetal bovine serum, 2.5% horse serum, and penicillin/streptomycin.
(§3) Cells NCI-H358 and MIA-Paca2 were inoculated into black transparent bottom 384-well plate (PerkinElmer catalogue number 6007460) with cell density of 1000 and 800 respectively, and the cells were allowed to adhere to the wall overnight (8-12 hours). After the cells adhered to the wall, the experimental group was added with the compound of the present disclosure diluted 5 times the concentration of the working solution (final concentration containing 0.1% dimethyl sulfoxide, i.e. DMSO); the control group was added with the same dilution as the experimental group (final concentration containing 0.1% DMSO). After 72 hours, Cell Titer Glo reagent (Promega catalogue number G7572) was used to detect ATP content according to the instruction method to determine the amount of cell proliferation. The brief operation steps were as follows: the cell plate was taken out and kept at normal temperature for equilibrium for 30 minutes; Cell Titer Glo reagent with the same volume as the culture was added; the culture plate was placed on a shaker for shaking and cracking for 2 minutes; the culture plate was left to stand at room temperature for 10 minutes; then the light signal value was read by microplate reader EnVision (PerkinElmer).
(§4) Data from all experimental groups were used to calculate the respective percent inhibition using the DMSO group, and the GI50 was calculated using the data processing software GraphPad to analyze the inhibition rates produced by the 9 compound dose concentrations diluted at ⅓-fold ratio.

[3] = tested on: MIA PaCa2 cells expressing KRAS-G12C; assay: Growth inhibition of tumor cell line expressing KRAS-G12C (Cell Titer Glo), MIA PaCa2
Experimental: as §1, §2, §3, §4

[4] = NCI-H358 cells, 2 hours of treatment, pERK normalized by Janus Green B, read-out: p-ERK IC50 (NCI H358)
[5] = Homo sapiens, MIA PaCa-2, 72 h, MIA-Paca2, 72 hours
[6] = Homo sapiens, NCI-H358, 2 h, NCI-H358 cells, 2 hours of treatment, pERK normalized by Janus Green B, read-out: p-ERK IC50 (NCI H358)

Structure (SMILES) | IC50 [1, 4] | GI50 ([2]; NCI-H358, 72 hours) | GI50 [3, 5] | IC50 [1, 6] | GI50 ([2]; Homo sapiens, NCI-H358, 72 h) | GI50 ([3]; MIA-Paca2, 72 hours) | further results
C=CC(=O)N1C[C@@H]2CN(CCCO)c3c(c4cc(F)c(-c5c(O)cccc5F)c(F)c4n(-c4c(C)ccnc4C(C)C)c3=O)N2C[C@H]1C [Compound 35A] | 0.068 µM | 53 nM | 2140 nM |  |  |  | 
C=CC(=O)N1C[C@@H]2C(=O)N(CCO)c3c(c4cc(F)c(-c5c(O)cccc5F)c(F)c4n(-c4c(C)ccnc4C(C)C)c3=O)N2C[C@H]1C [Compound 40A] |  |  | 56 nM | 0.052 µM | 62 nM |  | 
C=CC(=O)N1C[C@@H]2C(=O)N(CCN(C)C)c3c(c4cc(Cl)c(-c5c(O)cccc5F)nc4n(-c4c(C)ccnc4C(C)C)c3=O)N2C[C@H]1C [Compound 29A] |  |  | 67 nM | 0.124 µM | 44 nM |  | 
C=CC(=O)N1C[C@@H]2C(=O)N(C)c3c(c4cc(Cl)c(-c5c(O)cccc5F)nc4n(-c4c(C)ccnc4C(C)C)c3=O)N2C[C@H]1C [Compound 25A] |  |  | 29 nM | 0.014 µM | 10 nM |  | 
C=CC(=O)N1C[C@@H]2CN(CCCO)c3c(c4cc(F)c(-c5c(O)cccc5F)c(F)c4n(-c4c(C)ccnc4C(C)C)c3=O)N2C[C@H]1C (atropisomer, axis not shown) [Compound 35A-1] | 0.313 µM | 163 nM |  |  |  | 2600 nM | 
C=CC(=O)N1C[C@@H]2C(=O)N(C)c3c(c4cc(Cl)c(-c5c(O)cccc5F)c(F)c4n(-c4c(C)ccnc4C(C)C)c3=O)N2C[C@H]1C [Compound 23A-2] | 0.003 µM | 3 nM |  |  |  | 14 nM | 
C=CC(=O)N1C[C@@H]2COc3c(c4cc(F)c(-c5c(F)cccc5OC)nc4n(-c4c(C)ccnc4C(C)C)c3=O)N2C[C@H]1C (single isomer, unassigned) [Compound 6A] | 0.065 µM |  | 230 nM |  | 41 nM |  | 
C=CC(=O)N1C[C@@H]2C(=O)N(C)c3c(c4cc(F)c(-c5c(C)ccc6[nH]ncc56)c(F)c4n(-c4c(C)ccnc4C(C)C)c3=O)N2C[C@H]1C [Compound 32A] |  |  | 604 nM | 0.274 µM | 442 nM |  | 
C=CC(=O)N1C[C@@H]2C(=O)N(C)c3c(c4cc(Cl)c(-c5ccc(F)c6nc(N)sc56)nc4n(-c4c(C)ccnc4C(C)C)c3=O)N2C[C@H]1C (single isomer, unassigned) [Compound 56A] | 0.183 µM | 223 nM |  |  |  | 448 nM | 
C=CC(=O)N1C[C@@H]2C(=O)N(C)c3c(c4cc(Cl)c(-c5c(O)cccc5F)c(F)c4n(-c4c(C)ncnc4C(C)C)c3=O)N2C[C@H]1C [Compound 49A] |  |  | 9 nM | 0.004 µM | 4 nM |  | 
C=CC(=O)N1C[C@@H]2C(=O)Nc3c(c4cc(F)c(-c5c(O)cccc5F)c(F)c4n(-c4c(C)ccnc4C(C)C)c3=O)N2C[C@H]1C [Compound 22A-1] | 0.06 µM | 28 nM |  |  |  | 85 nM | 
C=CC(=O)N1C[C@@H]2C(=O)N(CCN(C)C)c3c(c4cc(Cl)c(-c5c(O)cccc5F)c(F)c4n(-c4c(C)ccnc4C(C)C)c3=O)N2C[C@H]1C (atropisomer, axis not shown) [Compound 26A] |  |  | 724 nM | 0.203 µM | 152 nM |  | 
C=CC(=O)N1C[C@@H]2COc3c(c4cc(F)c(-c5c(O)cccc5F)c(F)c4n(-c4c(C(C)C)ncnc4C(C)C)c3=O)N2C[C@H]1C [Compound 19A] |  |  | 14 nM | 0.008 µM | 8 nM |  | 
C=CC(=O)N1C[C@@H]2CN(CC(=O)OC)c3c(c4cc(F)c(-c5c(O)cccc5F)c(F)c4n(-c4c(C)ccnc4C(C)C)c3=O)N2C[C@H]1C [Compound 38B] | 0.064 µM |  | 535 nM |  | 77 nM |  | 
C=CC(=O)N1C[C@@H]2CN(C)c3c(c4cc(F)c(-c5c(O)cccc5F)c(F)c4n(-c4c(C)ccnc4C(C)C)c3=O)N2C[C@H]1C (single isomer, unassigned) [Compound 16A] | 0.017 µM |  | 211 nM |  | 20 nM |  | 
C=CC(=O)N1C[C@@H]2C(=O)N(C)c3c(c4cc(Cl)c(-c5c(O)cccc5F)c(F)c4n(-c4c(C)ncnc4C(C)C)c3=O)N2C[C@H]1C (atropisomer, axis not shown) [Compound 49A-1] | 0.005 µM | 3 nM |  |  |  | 7 nM | 
C=CC(=O)N1C[C@@H]2COc3c(c4cc(Cl)c(-c5c(O)cccc5F)c(F)c4n(-c4c(C)ccnc4C(C)C)c3=O)N2C[C@H]1C (atropisomer, axis not shown) [Compound 18B] | 0.151 µM | 138 nM |  |  |  | 468 nM | 
C=CC(=O)N1C[C@@H]2COc3c(c4cc(F)c(-c5c(C)ccc6[nH]ncc56)nc4n(-c4ccccc4C(C)C)c3=O)N2C[C@H]1C (single isomer, unassigned) [Compound 13A] | 0.04 µM |  | 265 nM |  | 59 nM |  | 
C=CC(=O)N1C[C@@H]2C(=O)N(C)c3c(c4cc(F)c(-c5c(O)cccc5F)nc4n(-c4ccccc4C(C)C)c3=O)N2C[C@H]1C (atropisomer, axis not shown) [Compound 7B] |  |  | 328 nM | 0.098 µM | 148 nM |  | 
C=CC(=O)N1C[C@@H]2COc3c(c4cc(F)c(-c5c(O)cccc5F)c(F)c4n(-c4c(C)ccnc4C(C)C)c3=O)N2C[C@H]1C [Compound 3B] | 0.008 µM | 8 nM |  |  |  | 39 nM | 
C=CC(=O)N1C[C@@H]2COc3c(c4cc(F)c(-c5c(O)cccc5F)nc4n(-c4c(C)ccnc4C(C)C)c3=O)N2C[C@H]1C (single isomer, unassigned) [Compound 5A] | 0.061 µM | 89 nM |  |  |  | 252 nM | 
C=CC(=O)N1C[C@@H]2C(=O)N(C)c3c(c4cc(Cl)c(-c5c(O)cccc5F)c(F)c4n(-c4c(C)ccnc4C(C)C)c3=O)N2C[C@H]1C [Compound 23A-1] |  |  | 281 nM | 0.111 µM | 104 nM |  | 
C=CC(=O)N1C[C@@H]2C(=O)N(CCN(C)C)c3c(c4cc(Cl)c(-c5c(F)cccc5OC)c(F)c4n(-c4c(C)ccnc4C(C)C)c3=O)N2C[C@H]1C (atropisomer, axis not shown) [Compound 27D] | 0.124 µM | 85 nM |  |  |  | 117 nM | 
C=CC(=O)N1CCN(c2ncnc3c(F)c(-c4c(O)cccc4F)c(Cl)cc23)CC1 [ARS-1620] |  |  |  |  |  |  | IC50 ([1]; Homo sapiens, NCI-H358, 2 h, read-out: p-ERK IC50 (NCI H358, μM)): 0.325 µM; GI50 ([2]; Homo sapiens, NCI-H358, 72 hours): 510 nM; GI50 ([3]; Homo sapiens, MIA PaCa-2, MIA-Paca2, 72 hours): 1210 nM
C=CC(=O)N1C[C@@H]2COc3c(c4cc(Cl)c(-c5c(O)cccc5F)c(F)c4n(-c4c(C)ccnc4C(C)C)c3=O)N2C[C@H]1C (atropisomer, axis not shown) [Compound 18A-2] | 0.013 µM | 12 nM |  |  |  | 24 nM | 
